Key:
mouse [1] = conditions: Carcinogenicity, b6c3f1, Oral, Feed, dose end: 24 month, group: systemic
rat [2] = conditions: Subchronic oral toxicity in rodents, wistar, Feed, dose end: 90 day, group: systemic
rat [3] = conditions: Prenatal developmental toxicity study, wistar, Oral, Gavage/Intubation, dose end: 19 GD
rabbit = conditions: Prenatal developmental toxicity study, himalayan, Oral, Gavage/Intubation, dose end: 28 GD
mouse [4] = conditions: Subchronic oral toxicity in rodents, b6c3f1, Feed, dose end: 90 day, group: systemic
rat [5] = conditions: Multigenerational reproductive toxicity study, sprague dawley, Oral, Feed, dose end: 2 generation
rat [6] = conditions: Combined chronic toxicity/carcinogenicity; wistar; Oral; Feed; dose end: 2 year; group: systemic; systemic / pathology microscopic / liver / cytoplasmic alteration + systemic / pathology microscopic / liver / hypertrophy + systemic / …
dog [7] = conditions: Chronic toxicity, beagle, Oral, Feed, dose end: 52 week, group: systemic
dog [8] = conditions: Subchronic oral toxicity in nonrodent, beagle, Feed, dose end: 106 day, group: systemic
rat [9] = conditions: Sub-acute repeat dose toxicity, sprague dawley, Oral, Gavage/Intubation, dose end: 7 day, group: systemic
primate [10] = conditions: Sub-acute repeat dose toxicity, Oral, Gavage/Intubation, dose end: 5 day, group: systemic
rat [11] = conditions: Sub-acute repeat dose toxicity, sprague dawley, Oral, Gavage/Intubation, dose end: 29 day, group: systemic
primate [12] = conditions: Sub-acute repeat dose toxicity; Oral; Gavage/Intubation; dose end: 28 day; group: systemic; systemic / clinical chemistry / cholesterol / cholesterol, direct ldl + systemic / hematology / erythrocyte (rbc) count differential / …
[13] = systemic / pathology microscopic / liver / degeneration + systemic / pathology microscopic / liver / fatty change + systemic / pathology …
[14] = systemic / pathology microscopic / lymph node / hemorrhage
[15] = systemic / clinical chemistry / triiodothyronine (t3) / triiodothyronine (t3), free
[16] = group: developmental, developmental / developmental malformation / bone / enlarged fontanel + developmental / developmental malformation / bone / incomplete …
[17] = group: maternal, reproductive / reproductive performance / resorptions / resorptions + systemic / in life observation / body weight / body weight + systemic…
[18] = group: developmental, systemic / in life observation / body weight / fetal weight
[19] = group: developmental, systemic / in life observation / body weight / fetal weight + developmental / developmental malformation / bone / full supernumerary + …
[20] = group: maternal, systemic / in life observation / body weight / body weight gain + systemic / in life observation / clinical signs / defecation + systemic / …
[21] = systemic / pathology microscopic / adrenal gland / fatty change + systemic / pathology microscopic / adrenal gland / hypertrophy
[22] = systemic / pathology microscopic / liver / hypertrophy
[23] = group: offspring, systemic / in life observation / body weight / offspring (pup) weight
[24] = group: parental, systemic / organ weight / liver / absolute + systemic / organ weight / liver / relative to body weight + systemic / organ weight / thyroid …
[25] = group: reproductive, reproductive / reproductive performance / dystocia / dystocia
[26] = systemic / organ weight / prostate / nos
[27] = systemic / organ weight / spleen / nos
[28] = systemic / clinical chemistry / [other] / [other] + systemic / clinical chemistry / epoxide hydrolase / epoxide hydrolase + systemic / …
[29] = systemic / clinical chemistry / epoxide hydrolase / epoxide hydrolase + systemic / pathology microscopic / prostate / secretory fluid
[30] = systemic / clinical chemistry / aspartate aminotransferase (ast/sgot) / aspartate aminotransferase (ast/sgot) + systemic / clinical …
[31] = systemic / clinical chemistry / gamma glutamyl transferase (ggt) / gamma glutamyl transferase (ggt) + systemic / pathology microscopic / …
[32] = systemic / hematology / blood clotting / blood clotting - activated partial thromboplastin time + systemic / hematology / fibrinogen / …
[33] = systemic / hematology / blood clotting / blood clotting - activated partial thromboplastin time + systemic / in life observation / food …
[34] = systemic / clinical chemistry / cytochrome p450, nos / cytochrome p450, nos + systemic / in life observation / clinical signs / alopecia + …
[35] = systemic / in life observation / clinical signs / salivation + systemic / organ weight / liver / absolute + systemic / pathology microscopic…

Work on `N#CN=C1SCCN1Cc1ccc(Cl)nc1` [Thiacloprid] yielded an LOAEL (mouse [1]; [13]) of 234 mg/kg/day, an NOAEL (mouse [1]; [13]) of 5.7 mg/kg/day and an LEL (mouse [1]; [14]) of 5.7 mg/kg/day. It also gave an NEL (mouse [1]; [14]) of under 5.7 mg/kg/day, an LEL (rat [2]; [15]) of 1.9 mg/kg/day and an NEL (rat [2]; [15]) of under 1.9 mg/kg/day. For the same compound, the LOAEL (rat [2]; systemic / in life observation / body weight / body weight) was 28.6 mg/kg/day, the NOAEL (rat [2]; systemic / in life observation / body weight / body weight + systemic / clinical chemistry / cholesterol / cholesterol + systemic / clinical…) was 7.3 mg/kg/day and the LEL (rat [3]; [16]) was 50 mg/kg/day. The LOAEL (rat [3]; [16]) was 50 mg/kg/day, the NEL (rat [3]; [16]) was 10 mg/kg/day and the NOAEL (rat [3]; [16]) was 10 mg/kg/day. The LEL (rat [3]; [17]) was 50 mg/kg/day, the LOAEL (rat [3]; [17]) was 50 mg/kg/day and the NEL (rat [3]; [17]) was 10 mg/kg/day. It also gave an NOAEL (rat [3]; [17]) of 10 mg/kg/day, an LEL (rabbit; [18]) of 10 mg/kg/day and an LOAEL (rabbit; [18]) of 10 mg/kg/day. The NEL (rabbit; [19]) was 2 mg/kg/day, the NOAEL (rabbit; [19]) was 2 mg/kg/day and the LEL (rabbit; [20]) was 10 mg/kg/day. The LOAEL (rabbit; [20]) was 10 mg/kg/day, the NEL (rabbit; [20]) was 2 mg/kg/day and the NOAEL (rabbit; [20]) was 2 mg/kg/day. The LOAEL (mouse [4]; [21]) was 27.2 mg/kg/day, the NOAEL (mouse [4]; [21]) was under 27.2 mg/kg/day and the LEL (mouse [4]; [22]) was 19.9 mg/kg/day. It also gave an NEL (mouse [4]; [22]) of under 19.9 mg/kg/day, an LEL (rat [5]; [23]) of 21 mg/kg/day and an LOAEL (rat [5]; [23]) of 21 mg/kg/day. For the same compound, the NEL (rat [5]; [23]) was 3.5 mg/kg/day, the NOAEL (rat [5]; [23]) was 3.5 mg/kg/day and the LOAEL (rat [5]; [24]) was 21 mg/kg/day. The NEL (rat [5]; [24]) was 3.5 mg/kg/day, the NOAEL (rat [5]; [24]) was 3.5 mg/kg/day and the LEL (rat [5]; group: parental, systemic / organ weight / liver / absolute + systemic / organ weight / liver / relative to body weight + systemic / pathology microscopic / …) was 21 mg/kg/day. For the same compound, the LEL (rat [5]; [25]) was 26 mg/kg/day, the LOAEL (rat [5]; [25]) was 26 mg/kg/day and the NEL (rat [5]; [25]) was 4.2 mg/kg/day. For the same compound, the NOAEL (rat [5]; [25]) was 4.2 mg/kg/day, the LEL (rat [6]) was 2.5 mg/kg/day and the LOAEL (rat [6]) was 2.5 mg/kg/day. The NEL (rat [6]) was 1.2 mg/kg/day, the NOAEL (rat [6]) was 1.2 mg/kg/day and the LOAEL (dog [7]; [26]) was over 32.2 mg/kg/day. The NOAEL (dog [7]; [26]) was at least 32.2 mg/kg/day, the LEL (dog [7]; [27]) was 1.39 mg/kg/day and the NEL (dog [7]; [27]) was under 1.39 mg/kg/day. For the same compound, the LOAEL (dog [8]; [28]) was 34.7 mg/kg/day, the NOAEL (dog [8]; [28]) was 8.9 mg/kg/day and the LEL (dog [8]; [29]) was 8.5 mg/kg/day. For the same compound, the NEL (dog [8]; [29]) was under 8.5 mg/kg/day.
In the case of `CC[C@@H]1C[C@H](N(Cc2cc(C(F)(F)F)cc(C(F)(F)F)c2)C(C)=O)c2cc(C(F)(F)F)ccc2N1C(=O)OC(C)C`, the LOAEL (rat [9]; [30]) was over 700 mg/kg/day, the NOAEL (rat [9]; [30]) was at least 700 mg/kg/day and the LEL (rat [9]; [31]) was 10 mg/kg/day. The NEL (rat [9]; [31]) was under 10 mg/kg/day, the LOAEL (primate [10]; [32]) was over 140 mg/kg/day and the NOAEL (primate [10]; [32]) was at least 140 mg/kg/day. The LEL (primate [10]; [33]) was 10 mg/kg/day, the NEL (primate [10]; [33]) was under 10 mg/kg/day and the LOAEL (rat [11]; [34]) was over 125 mg/kg/day. It also gave an NOAEL (rat [11]; [34]) of at least 125 mg/kg/day, an LEL (rat [11]; [35]) of 2 mg/kg/day and an NEL (rat [11]; [35]) of under 2 mg/kg/day. It also gave an LEL (primate [12]) of 10 mg/kg/day, an LOAEL (primate [12]) of over 140 mg/kg/day and an NEL (primate [12]) of under 10 mg/kg/day. The NOAEL (primate [12]) was at least 140 mg/kg/day.

— EPA's ToxRefDB 2
